The values below come from ChEMBL document CHEMBL2439966, “Development of novel ferulic acid derivatives as potent histone deacetylase inhibitors” (Bioorg Med Chem, 2013).

The IC50 is the concentration that gives 50% inhibition.

A value given as a limit tells only on which side of the number the result lay.

The target of one assay is Histone deacetylase. Briefly: Inhibition of HDAC in human HeLa cell nuclear extracts using Color de LysTM after 30 mins. Format: protein assay.
A further assay concerns MCF7. Description: cells. Type of assay: functional, cell-based. Conditions: Homo sapiens, MCF7, 48 h.
The next assay deals with MDA-MB-231. Description: cells. Format: functional, cell-based. Conditions: Homo sapiens, MDA-MB-231, 48 h.
The subject of another assay is HeLa. Description: cells. Type of assay: functional, cell-based. Conditions: Homo sapiens, 48 h.

Description for HeLa: Growth inhibition of human HeLa cells after 48 hrs by MTT assay
Description for MCF7: Growth inhibition of human MCF7 cells after 48 hrs by MTT assay
Description for MDA-MB-231: Growth inhibition of human MDA-MB-231 cells after 48 hrs by MTT assay

With `COc1cc(/C=C/C(=O)Nc2ccc(C)cc2N)ccc1OCC(=O)Nc1cc(Br)cc(C(F)(F)F)c1`, the IC50 against Histone deacetylase was 7.43 µM; in the assay on MCF7 it was 92.1 µM; with MDA-MB-231 it was > 100 µM; in the assay on HeLa it was 84.3 µM.
Take `COc1cc(/C=C/C(=O)NO)ccc1OCC(=O)Nc1ccc(F)c(Cl)c1`: at Histone deacetylase, the IC50 is 49.3 µM.
The same measure, in the same setting: as for `COc1cc(/C=C/C(=O)NO)ccc1OCC(=O)Nc1cccc(C(F)(F)F)c1`, the figure is 12.5 µM.
The same measure, in the same setting: next, `COc1cc(/C=C/C(=O)NO)ccc1OCC(=O)Nc1ccc(Cl)c(Cl)c1`: 43 µM; `COc1ccc(NC(=O)COc2ccc(/C=C/C(=O)NO)cc2OC)cc1`: 10.8 µM.
In the case of `COc1cc(/C=C/C(=O)NO)ccc1OCC(=O)Nc1ccc(Br)cc1`, the IC50 against Histone deacetylase was 8.43 µM; in the assay with MCF7 it was 73.6 µM; in the assay on MDA-MB-231, 0.76 µM; with HeLa, > 100 µM.
The corresponding values for `COc1cc(/C=C/C(=O)NO)ccc1OCC(=O)Nc1ccccc1F` are 3.94 µM, > 100 µM, 8.3 µM and 11.1 µM.
On the same counts, the results for `COc1cc(/C=C/C(=O)NO)ccc1OCC(=O)Nc1cccc(F)c1` are 9.47 µM, 39.5 µM, 1.45 µM and 34.5 µM.
`COc1cc(/C=C/C(=O)NO)ccc1OCC(=O)Nc1cc(C(F)(F)F)cc(C(F)(F)F)c1` showed an IC50 on Histone deacetylase of 10.5 µM.
On the same count and under the same terms, as for `COc1cc(/C=C/C(=O)NO)ccc1OCC(=O)Nc1cc(Br)cc(C(F)(F)F)c1`, the figure is 67.8 µM; as for `COc1cc(/C=C/C(=O)Nc2ccccc2N)ccc1OCC(=O)Nc1ccc(F)c(Cl)c1`, 11.5 µM; as for `COc1cc(/C=C/C(=O)Nc2ccccc2N)ccc1OCC(=O)Nc1cccc(C(F)(F)F)c1`, 49.6 µM.
Turning to `COc1cc(/C=C/C(=O)Nc2ccccc2N)ccc1OCC(=O)Nc1ccc(Cl)c(Cl)c1`, the 50% inhibitory concentration (IC50) was 10.3 µM on Histone deacetylase, > 100 µM with MCF7, 83.4 µM with MDA-MB-231 and 72.1 µM in the assay with HeLa.
As for `COc1ccc(NC(=O)COc2ccc(/C=C/C(=O)Nc3ccccc3N)cc2OC)cc1`, the IC50 was 8.95 µM against Histone deacetylase, > 100 µM with MCF7, 48.5 µM in the assay on MDA-MB-231 and > 100 µM with HeLa.
At Histone deacetylase, `COc1cc(/C=C/C(=O)Nc2ccccc2N)ccc1OCC(=O)Nc1ccc(Br)cc1` had an IC50 of 12.8 µM.
The same measure, in the same setting: next, `COc1cc(/C=C/C(=O)Nc2ccccc2N)ccc1OCC(=O)Nc1ccccc1F`: 73.7 µM.
Turning to `COc1cc(/C=C/C(=O)Nc2ccccc2N)ccc1OCC(=O)Nc1cccc(F)c1`, the IC50 on Histone deacetylase was 2.82 µM; in the assay on MCF7, > 100 µM; in the assay with MDA-MB-231, > 100 µM; with HeLa, 28.1 µM.
Take `COc1cc(/C=C/C(=O)Nc2ccccc2N)ccc1OCC(=O)Nc1cc(C(F)(F)F)cc(C(F)(F)F)c1`: the IC50 at Histone deacetylase worked out at 7.8 µM; in the assay with MCF7 it was 43.1 µM; with MDA-MB-231 it was 25.3 µM; in the assay with HeLa, 20.8 µM.
`COc1cc(/C=C/C(=O)Nc2ccccc2N)ccc1OCC(=O)Nc1cc(Br)cc(C(F)(F)F)c1` displayed an IC50 at Histone deacetylase of 24.2 µM.
On Histone deacetylase, `COc1cc(/C=C/C(=O)Nc2ccc(C)cc2N)ccc1OCC(=O)Nc1ccc(F)c(Cl)c1` yielded an IC50 of 15.4 µM.
On the same count and under the same terms, next, `COc1cc(/C=C/C(=O)Nc2ccc(C)cc2N)ccc1OCC(=O)Nc1cccc(C(F)(F)F)c1`: 15.1 µM; `COc1cc(/C=C/C(=O)Nc2ccc(C)cc2N)ccc1OCC(=O)Nc1ccc(Cl)c(Cl)c1`: 64.5 µM.
Same read-out and setting: next, `COc1ccc(NC(=O)COc2ccc(/C=C/C(=O)Nc3ccc(C)cc3N)cc2OC)cc1`: 118 µM; `COc1cc(/C=C/C(=O)Nc2ccc(C)cc2N)ccc1OCC(=O)Nc1ccc(Br)cc1`: 16.4 µM; `COc1cc(/C=C/C(=O)Nc2ccc(C)cc2N)ccc1OCC(=O)Nc1ccccc1F`: 11.6 µM.
On the same count and under the same terms, next, `COc1cc(/C=C/C(=O)Nc2ccc(C)cc2N)ccc1OCC(=O)Nc1cccc(F)c1`: 66.6 µM; `COc1cc(/C=C/C(=O)Nc2ccc(C)cc2N)ccc1OCC(=O)Nc1cc(C(F)(F)F)cc(C(F)(F)F)c1`: 71.4 µM.
